US12018026B1, “Pyrido[4,3-e][1,2,3]triazolo[1,5-a]pyrimidine as CK2 inhibitors” (KING FAISAL UNIVERSITY, priority 2024, dated 2024)

How the values were obtained:
MDA-MB-231 (breast) = experiment: In vitro cytotoxic activity MTT assay, MDA-MB-231; assay type: cell-based; conditions: Homo sapiens, cells exposed for 96 hours, read-out: Cytotoxicity activity IC50, MDA-MB-231 (breast)
Method: (§1) Compounds 1-16 were screened for their in vitro cytotoxic activity utilizing a 3-(4,5-dimethyl-thiazol-2-yl)-2,5-diphenyltetrazolium bromide (MTT) assay against selected cancer human cell lines consisting of PC3 (prostate), HCT116 (colon), A375 (melanoma), H1299 (lung), MIAPaCa-2 (pancreas), HL60 (leukemia), MCF7 (breast), MDA-MB-231 (breast) (T. Mosmann, J. Immunol. Meth., 1983, 65, 55-63). The cells were cultured at 37° C. in RMPI1640 medium supplemented with 10% fetal bovine serum, 50 IU/mL penicillin, and 50 μg/mL streptomycin in a 5% CO2 incubator. All cells were sub-cultured 3 times/week by trypsinisation. Viable cells were seeded and allowed to adhere for 12 hours before a test drug was added in 96-well plates at an initial density of 1.0×10^5 cells/mL. Tumor cell lines were separately exposed to various concentrations of the tested compounds followed by incubation at a temperature of 37° C. during 96 hours inside a medium of fresh RMPI 1640. Cells were subsequently incubated at 37° C. using MTT at 0.5 mg/mL during 4 hours. After removal of supernatant, formazan crystals were dissolved in isopropanol and the optical density was measured at 570 nm. CX-4945 was used as a positive control.

MCF7 (breast) = experiment: In vitro cytotoxic activity MTT assay, MCF7; assay type: cell-based; conditions: Homo sapiens, cells exposed for 96 hours, read-out: Cytotoxicity activity IC50, MCF7 (breast)
Method: as §1

PC3 (prostate) = experiment: In vitro cytotoxic activity MTT assay, PC3; assay type: cell-based; conditions: Homo sapiens; cells exposed for 96 hours; read-out: Cytotoxicity activity IC50, PC3 (prostate)
Method: as §1

HL60 (leukemia) = experiment: In vitro cytotoxic activity MTT assay, HL60; assay type: cell-based; conditions: Homo sapiens, HL-60; cells exposed for 96 hours; read-out: Cytotoxicity activity IC50, HL60 (leukemia)
Method: as §1

HCT116 (colon) = experiment: In vitro cytotoxic activity MTT assay, HCT116; assay type: cell-based; conditions: Homo sapiens, HCT-116; cells exposed for 96 hours; read-out: Cytotoxicity activity IC50, HCT116 (colon)
Method: as §1

H1299 (lung) = experiment: In vitro cytotoxic activity MTT assay, H1299; assay type: cell-based; conditions: Homo sapiens, NCI-H1299; cells exposed for 96 hours; read-out: Cytotoxicity activity IC50, H1299 (lung)
Method: as §1

A375 (melanoma) = experiment: In vitro cytotoxic activity MTT assay, A375; assay type: cell-based; conditions: Homo sapiens, A-375; cells exposed for 96 hours; read-out: Cytotoxicity activity IC50, A375 (melanoma)
Method: as §1

[1] = molecular target: T1, recombinant human CK2 (RRββ-holoenzyme) (Homo sapiens, UniProt P68400); experiment: CK2 Kinase Assay (33P-ATP, substrate peptide RRRDDDSDDD); assay type: biochemical; conditions: final ATP concentration 15 μM, 10 min at 30° C.; read-out: protein kinase CK2 IC50
T1 construct: purchased Millipore
Method: CK2 Kinase Assay was conducted using the protocol as described in Pierre F. et al; J. Med. Chem. 2011, 54, 635-654. The tested compounds in aqueous solution were added at a volume of 10 μL to a reaction mixture comprising 10 μL of assay dilution buffer (ADB; 20 mM MOPS, pH 7.2, 25 mM β-glycerol phosphate, 5 mM EGTA, 1 mM sodium orthovanadate, and 1 mM dithiothreitol), 10 μL of substrate peptide (RRRDDDSDDD, dissolved in ADB at a concentration of 1 mM), 10 μL of recombinant human CK2 (RRββ-holoenzyme, 25 ng dissolved in ADB; Millipore). Reactions were initiated by the addition of 10 μL of ATP solution (90% 75 mMMgCl2, 75 μM ATP (final ATP concentration: 15 μM) dissolved in ADB; 10% [γ-33P] ATP (stock 1mCi/100 L; 3000 Ci/mmol (Perkin-Elmer) and maintained for 10 min at 30° C. The reactions were quenched with 100 μL of 0.75% phosphoric acid and then transferred to and filtered through a phosphor cellulose filter plate (Millipore). After washing each well five times with 0.75% phosphoric acid, the plate was dried under vacuum for 5 min and, following the addition of 15 μL of scintillation fluid to each well, the residual radioactivity was measured using a Wallac luminescence counter. The IC50 values were derived from eight concentrations of test inhibitors.

MIAPaCa-2 (pancreas) = experiment: In vitro cytotoxic activity MTT assay, MIAPaCa-2; assay type: cell-based; conditions: Homo sapiens, MIA PaCa-2; cells exposed for 96 hours; read-out: Cytotoxicity activity IC50, MIAPaCa-2 (pancreas)
Method: as §1

T1 sequence (P68400 whole entry): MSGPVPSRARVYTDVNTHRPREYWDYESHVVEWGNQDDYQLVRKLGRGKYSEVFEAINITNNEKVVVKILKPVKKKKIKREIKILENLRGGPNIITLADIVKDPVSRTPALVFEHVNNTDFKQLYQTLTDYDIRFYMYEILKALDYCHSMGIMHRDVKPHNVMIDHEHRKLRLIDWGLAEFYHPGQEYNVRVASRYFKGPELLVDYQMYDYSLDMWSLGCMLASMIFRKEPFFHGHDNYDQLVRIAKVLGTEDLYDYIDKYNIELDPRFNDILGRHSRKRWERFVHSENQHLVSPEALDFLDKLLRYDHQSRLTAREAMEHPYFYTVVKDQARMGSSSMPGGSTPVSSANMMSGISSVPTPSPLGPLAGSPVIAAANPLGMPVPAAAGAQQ
T1 sequence (P67870 whole entry partner): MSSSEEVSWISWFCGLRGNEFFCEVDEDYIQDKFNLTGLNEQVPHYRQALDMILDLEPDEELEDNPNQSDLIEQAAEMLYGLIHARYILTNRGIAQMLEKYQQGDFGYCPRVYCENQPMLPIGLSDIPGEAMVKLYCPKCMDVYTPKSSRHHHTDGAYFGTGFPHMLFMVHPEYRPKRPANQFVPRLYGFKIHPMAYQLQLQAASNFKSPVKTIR

`O=C(O)c1nnn2c1nc(Nc1cccc(Cl)c1)c1ccncc12` [Compound 1, 5-((3-chlorophenyl)amino)pyrido[4,3-e][1,2,3]triazolo[1,5-a]pyrimidine-3-carboxylic acid] showed an IC50 (MDA-MB-231 (breast)) of 4.2 µM, an IC50 (MCF7 (breast)) of 4.7 µM and an IC50 (PC3 (prostate)) of 1.4 µM. It also gave an IC50 (HL60 (leukemia)) of 5.4 µM, an IC50 (HCT116 (colon)) of 2.5 µM and an IC50 (H1299 (lung)) of 3.3 µM. The IC50 (A375 (melanoma)) was 5.7 µM, the IC50 [1] was 0.024 µM and the IC50 (MIAPaCa-2 (pancreas)) was 1.1 µM.
